This is an account of results in ChEMBL document CHEMBL1136084, “N-(4-[4-(2,3-dichlorophenyl)piperazin-1-yl]butyl, butenyl and butynyl)arylcarboxamides as novel dopamine D(3) receptor antagonists” (Bioorg Med Chem Lett, 2003).

Experiment [1] addresses D(3) dopamine receptor (Rattus norvegicus, UniProt P19020). Description: Binding affinity towards rat Dopamine receptor D3 in Sf9 cells expressing in recombinant baculovirus (Bv) using [125I]IABN as radioligand.
Another experiment has as its target D(2) dopamine receptor (Rattus norvegicus, UniProt P61169). The experiment can be described thus: biochemical.
Experiment [2] deals with D(3) dopamine receptor (Homo sapiens, UniProt P35462).
D(3) dopamine receptor (Homo sapiens, UniProt P35462), sequence (P35462 whole entry): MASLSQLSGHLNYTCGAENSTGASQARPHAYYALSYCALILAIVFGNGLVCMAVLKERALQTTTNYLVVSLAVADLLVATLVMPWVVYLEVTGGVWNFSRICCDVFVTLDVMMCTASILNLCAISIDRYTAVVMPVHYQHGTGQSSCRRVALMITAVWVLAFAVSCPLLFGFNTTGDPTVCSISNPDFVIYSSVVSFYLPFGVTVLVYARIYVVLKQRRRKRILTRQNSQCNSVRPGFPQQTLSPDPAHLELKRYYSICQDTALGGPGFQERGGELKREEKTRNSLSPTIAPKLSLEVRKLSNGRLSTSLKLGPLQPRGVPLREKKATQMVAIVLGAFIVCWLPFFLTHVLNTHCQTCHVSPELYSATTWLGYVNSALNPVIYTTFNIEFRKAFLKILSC
Description: Antagonistic activity of quinpirole stimulation of mitogenesis in human Dopamine receptor D3 transfected CHO cells

D(3) dopamine receptor (Rattus norvegicus, UniProt P19020), sequence (P19020 whole entry): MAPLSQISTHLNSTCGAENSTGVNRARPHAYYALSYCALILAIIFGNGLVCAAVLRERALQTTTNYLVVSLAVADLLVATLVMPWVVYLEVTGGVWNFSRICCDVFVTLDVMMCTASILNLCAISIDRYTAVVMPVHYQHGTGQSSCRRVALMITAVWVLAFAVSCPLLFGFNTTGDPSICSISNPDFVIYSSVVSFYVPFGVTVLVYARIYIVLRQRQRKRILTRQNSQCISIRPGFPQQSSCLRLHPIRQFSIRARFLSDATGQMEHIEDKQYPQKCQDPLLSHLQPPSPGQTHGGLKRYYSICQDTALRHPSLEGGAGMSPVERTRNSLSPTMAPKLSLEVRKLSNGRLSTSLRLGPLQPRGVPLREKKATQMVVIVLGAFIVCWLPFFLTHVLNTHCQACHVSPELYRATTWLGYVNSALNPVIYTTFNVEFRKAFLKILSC
D(2) dopamine receptor, sequence (P61169 whole entry): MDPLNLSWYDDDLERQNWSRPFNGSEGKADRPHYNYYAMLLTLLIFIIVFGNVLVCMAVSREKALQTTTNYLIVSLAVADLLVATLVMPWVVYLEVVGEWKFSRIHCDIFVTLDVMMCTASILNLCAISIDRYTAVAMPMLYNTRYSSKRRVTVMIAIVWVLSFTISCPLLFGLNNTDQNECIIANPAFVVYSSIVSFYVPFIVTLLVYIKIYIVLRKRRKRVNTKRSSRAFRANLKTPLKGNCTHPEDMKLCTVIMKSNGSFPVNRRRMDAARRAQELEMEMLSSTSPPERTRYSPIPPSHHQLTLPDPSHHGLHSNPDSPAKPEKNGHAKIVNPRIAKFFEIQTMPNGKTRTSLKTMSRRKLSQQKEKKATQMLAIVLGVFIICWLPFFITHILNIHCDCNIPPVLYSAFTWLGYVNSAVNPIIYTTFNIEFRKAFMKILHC

In general, Ki refers to a measure of affinity in units of concentration, obtained from inhibition or displacement. With `O=C(NCCCCN1CCN(c2cccc(Cl)c2Cl)CC1)c1cccc2c1-c1ccccc1C2`, the Ki at D(3) dopamine receptor [1] came to 4.5 nM; on D(2) dopamine receptor, 134 nM.
Regarding `O=C(NCCCN1CCN(c2cccc(Cl)c2Cl)CC1)C1c2ccccc2-c2ccccc21`, the Ki on D(3) dopamine receptor [1] was determined as 34 nM; on D(2) dopamine receptor, 250 nM.
Consider `O=C(NCCCN1CCN(c2ccccc2)CC1)C1c2ccccc2-c2ccccc21`, for which the Ki on D(3) dopamine receptor [1] was determined as 84.5 nM; at D(2) dopamine receptor, 1020 nM.
As to `O=C(NC/C=C/CN1CCN(c2cccc(Cl)c2Cl)CC1)c1cccc2c1-c1ccccc1C2`, the Ki at D(3) dopamine receptor [1] was determined as 19 nM; on D(2) dopamine receptor it was 106 nM.
For the compound `O=C(NCCCCN1CCN(c2cccc(Cl)c2Cl)CC1)c1ccc(I)cc1`, the Ki was found to be 1.4 nM at D(3) dopamine receptor [1] and 87.5 nM on D(2) dopamine receptor.
In the case of `O=C(NCC#CCN1CCN(c2cccc(Cl)c2Cl)CC1)c1ccccc1`, the Ki was 394 nM on D(3) dopamine receptor [1] and 1700 nM at D(2) dopamine receptor.
For the compound `O=C1c2ccccc2C(=O)N1CCCCCN1CCN(c2cccc(Cl)c2Cl)CC1`, the inhibitory constant (Ki) amounted to 5.6 nM at D(3) dopamine receptor [1] and 86.4 nM on D(2) dopamine receptor.
`O=C(NC/C=C/CN1CCN(c2cccc(Cl)c2Cl)CC1)c1ccccc1`: the Ki was 1.3 nM at D(3) dopamine receptor [1] and 50.1 nM at D(2) dopamine receptor.
Turning to `O=C1c2ccccc2C(=O)N1CCCCN1CCN(c2cccc(Cl)c2Cl)CC1`, the inhibitory constant (Ki) on D(3) dopamine receptor [1] came out at 4.8 nM; at D(2) dopamine receptor, 102 nM.
As to `O=C(NCCCN1CCN(c2cccc(Cl)c2Cl)CC1)c1ccc2c(c1)Cc1ccccc1-2`, the inhibition constant Ki on D(3) dopamine receptor [1] was found to be 199 nM; at D(2) dopamine receptor it was 396 nM.
Take `O=C(NCCCCN1CCN(c2cccc(Cl)c2Cl)CC1)c1ccc(-c2ccccn2)cc1`: the figures for the Ki on D(3) dopamine receptor [1] and at D(2) dopamine receptor were 0.6 nM and 57.9 nM, respectively.
Take `O=C(NCCCN1CCN(c2cccc(Cl)c2Cl)CC1)c1cccc2c1-c1ccccc1C2=O`: the Ki at D(3) dopamine receptor [1] is 43 nM; on D(2) dopamine receptor, 153 nM.
In the same order, the values of `O=C(NC/C=C\CN1CCN(c2cccc(Cl)c2Cl)CC1)c1ccccc1` are 4.9 nM and 20 nM.
With `O=C(NCCCCN1CCN(c2cccc(Cl)c2Cl)CC1)c1ccc2c(c1)Cc1ccccc1-2`, the inhibition constant (Ki) was 1.1 nM on D(3) dopamine receptor [1] and 911 nM on D(2) dopamine receptor.
Consider `O=C(NCCCN1CCN(c2cccc(Cl)c2Cl)CC1)c1cccc2c1-c1ccccc1C2`, for which the Ki came out at 139 nM on D(3) dopamine receptor [1] and 376 nM at D(2) dopamine receptor.
Consider `O=C(NCC#CCN1CCN(c2cccc(Cl)c2Cl)CC1)c1ccc2c(c1)Cc1ccccc1-2`, for which the inhibition constant Ki at D(3) dopamine receptor [1] is 214 nM; at D(2) dopamine receptor, 1000 nM.
The IC50 is the concentration that gives 50% inhibition. Higher therefore signals lower potency. In turn, `O=C(NCCCCN1CCN(c2cccc(Cl)c2Cl)CC1)c1cnc2ccccc2n1` registered an IC50 on D(3) dopamine receptor [2] of 26.9 nM. In addition, the Ki on D(3) dopamine receptor [1] stood at 1.9 nM; on D(2) dopamine receptor it was 109 nM.
As to `Nc1ccc2c(c1)-c1c(cccc1C(=O)NCCCCN1CCN(c3cccc(Cl)c3Cl)CC1)C2`, the results for the Ki on D(3) dopamine receptor [1] and on D(2) dopamine receptor were 3.5 nM and 79.3 nM, respectively.
Take `O=C(NCCCCCN1CCN(c2cccc(Cl)c2Cl)CC1)c1cccc2c1-c1ccccc1C2=O`: the Ki amounted to 2 nM at D(3) dopamine receptor [1] and 35.3 nM at D(2) dopamine receptor.
For the compound `O=C(NC/C=C/CN1CCN(c2cccc(Cl)c2Cl)CC1)c1ccc2c(c1)Cc1ccccc1-2`, the Ki at D(3) dopamine receptor [1] came out at 5.9 nM; on D(2) dopamine receptor, 198 nM.
The matching figures for `O=C(NCCCCN1CCN(c2cccc(Cl)c2Cl)CC1)c1cccc2c1-c1ccccc1C2=O`: 1.6 nM and 150 nM.
Take `O=C(NCCCCN1CCN(c2cccc(Cl)c2Cl)CC1)C1c2ccccc2-c2ccccc21`: the inhibition constant Ki came out at 11.1 nM at D(3) dopamine receptor [1] and 55.2 nM at D(2) dopamine receptor.
In the case of `O=C(NCCCCN1CCN(c2cccc(Cl)c2Cl)CC1)c1cc2cc(F)ccc2[nH]1`, the Ki at D(3) dopamine receptor [1] was found to be 2.6 nM.
`O=C(NC/C=C\CN1CCN(c2cccc(Cl)c2Cl)CC1)c1ccc2c(c1)Cc1ccccc1-2`: the Ki at D(3) dopamine receptor [1] was 6 nM; at D(2) dopamine receptor, 87.3 nM.
Consider `O=C(NCC#CCN1CCN(c2cccc(Cl)c2Cl)CC1)c1cccc2c1-c1ccccc1C2`, for which the Ki at D(3) dopamine receptor [1] turned out to be 1080 nM; on D(2) dopamine receptor, 891 nM.
On to `O=C(NC/C=C\CN1CCN(c2cccc(Cl)c2Cl)CC1)c1cccc2c1-c1ccccc1C2`, for which the inhibition constant (Ki) at D(3) dopamine receptor [1] was 6.5 nM; on D(2) dopamine receptor it was 10.7 nM.
